Key:
[1] = tested on: residual PSCs in pre-purified cardiac clusters of murine αPIG-AT25 iPSCs; assay: Colony formation assay after treatment of pre-purified miPSC cardiac clusters; type: cell-based; conditions: 48 h
Procedure: Aiming at complete elimination of remaining PSCs in PSC-derived cell aggregates, murine cardiac clusters were pre-purified with 2-4 μg/ml puromycin from day 9 until day 14 of differentiation in order to prevent complete removal of PSCs and then treated with SM6 for 2 days to assess its potential for removal of contaminating PSCs in the absence of puromycin. After treatment, cardiac clusters were dissociated with 0.25% trypsin-EDTA supplemented with 50 U/ml of DNase I and the level of PSC contamination was determined using colony formation assay, flow cytometry for SSEA-1 and RT-PCR for Oct4. In colony formation assays 2×10^5 cells were plated on a 6 cm cell culture dish containing MEF and cultured in maintenance medium supplemented with 1000 U/ml of mLIF for 7-10 days. Developing PSC colonies on MEF plates were quantified and visualized with 1% crystal violet (Fluka Analytical, St. Louis, USA) diluted in methanol (Applichem).
Murine αPIG-AT25 iPSCs were differentiated in spinner flasks and pre-purification of CMs with puromycin was initiated on day 9 for a time period of 5 days, as is schematically illustrated in FIG. 6a). Compared to the standard protocol for the selection of miPSC-CMs, the applied concentration of puromycin was reduced from 8 μg/ml to 2 μg/ml in order to preserve a small population of PSCs in the cardiac clusters which were then treated with 1 μM, 5 μM and 10 μM of compound SM6 for 48 hours.
For quantifying the residual PSCs, the cardiac cluster-derived cells were cultured on MEFs under iPSC conditions to allow PSCs to form colonies which were visualized by crystal violet staining. The pluripotency of grown colonies was confirmed by immunocytochemical stainings for Oct4, at day 7 after plating of CMs from dissociated cardiac clusters on MEF.

[2] = tested on: αPIG-AT25 miPSC-derived cardiomyocytes; assay: Cell viability (PrestoBlue) of miPSC-derived cardiomyocytes; type: cell-based, murine
Procedure: The differentiation of transgenic mPSCs was initiated in mass cultures as briefly described below. One million cells were transferred per non-adhering 10 cm dish with 14 ml differentiation medium composed of Iscove's Modified Dulbecco's Medium (IMDM) with GlutaMAX (Life Technologies) supplemented with 20% FBS, 1×NEAA and 100 μM β-ME. Embryoid bodies (EBs) from day 2 of differentiation were transferred in a 250 ml spinner flask (CELLSPIN 250, Integra Biosciences, Fernwald, Germany) with a density of 3×10^4 EBs per 200 ml of differentiation medium. On the first 2 days of differentiation medium was supplemented with 50 μg/ml L-ascorbic acid phosphate (AA, Wako pure chemicals industry, Japan) in order to promote the development of cardiac cells. For the selection of GFP-expressing CMs, 50 ml of the medium was exchanged with fresh differentiation medium and 8 μg/ml puromycin (Life Technologies) were supplemented on day 9 of differentiation. Two days later, the cardiac clusters were transferred on non-adhering 10 cm dishes with fresh differentiation medium containing 8 μg/ml puromycin. In the further course of differentiation medium was exchanged every 2-3 days. If not otherwise specified, the purification of GFP-positive CMs with puromycin was continued until day 16 of differentiation. For single cell analyses and transfer of PSC-derived CMs on cell culture plates, cardiac clusters were dissociated with 0.25% trypsin-EDTA (Life Technologies) supplemented with 50 U/ml DNase I (AppliChem, Darmstadt, Germany) for 20-30 min at 37° C. The mPSC-derived CMs were filtered through a polyamide membrane with […] pore size (Sefar, Heiden, Switzerland). Cell numbers were determined with a Neubauer hemocytometer and cells were stored on ice until further use.
Serial dilutions of DMSO stock solutions of PluriSIn #1 (Sigma-Aldrich, catalog number SML0682) or one of small molecules SM1-SM10, were prepared from 20 mM stock solutions with cell culture medium. Murine PSCs were dissociated with 0.05% trypsin-EDTA, seeded on 0.1% gelatin-coated 96-well plates with a density of 5000 cells/well and cultured in maintenance medium supplemented with 1000 U/ml of mLIF. After 1 day, cells were incubated with 40 μM PluriSIn #1 and derivatives for 72 h or with 0.01-25 μM SMs for 48 h, respectively. For treatment of corresponding PSC-derived CMs with SMs, puromycin-selected miPSC-CMs from day 14 of differentiation were dissociated with 0.25% trypsin-EDTA as described above and plated on 96-well plates (5×10^4 cells/well) which were pre-coated with 5 μg/ml fibronectin (PromoCell, Heidelberg, Germany). After culturing miPSC-CMs with 8 μg/ml puromycin for 2 more days, they were incubated in differentiation medium supplemented with 0.1-100 μM of SMs for 48-72 h. Following small molecule treatment, cell viability was determined with PrestoBlue cell viability reagent (Life Technologies). To this end, cells were washed with PBS (with calcium and magnesium, Life Technologies) and incubated with PrestoBlue reagent diluted in cell culture medium for 40 min at 37° C.
Fluorescence intensities correlating with the number of viable cells in the wells were measured in black flat-bottom 96-well plates (Greiner Bio-One, Kremsmünster, Austria) with a GeniosPro microplate reader (Tecan, Männedorf, Schweiz).
The selectivity of compounds was investigated by comparing their cytotoxicity against undifferentiated iPSCs and iPSC-derived CMs. Murine iPSCs αPIG-AT25 were incubated for 48 h with compounds SM1, SM2, SM4, SM5, SM6 and SM8 in concentrations of 0.01 to 10 μM. Cell culture and cardiac differentiation were performed as described above. Experiments were run at least in quadruplicate. The cell viability was determined using PrestoBlue cell viability reagent.
The viability of salicylic diamine-treated CMs was confirmed by 72 h of exposure to concentrations of 0.01 μM, 0.1 μM, 1 μM, 10 μM and 25 μM of compounds SM1, SM2, SM4, SM5, SM6 and SM8.

COc1ccc(C[C@H](N)C(=O)N[C@H]2[C@@H](O)[C@H](n3cnc4c(N(C)C)ncnc43)O[C@@H]2CO)cc1 [puromycin, reference compound]
number of colonies after plating of 2×10^5 cells ([1]; puromycin 8 μg/ml): 28.9±23.37 colonies
reduction of the number of colonies compared to DMSO-treated control ([1]; puromycin 8 μg/ml): 64.87±25.55%

Oc1ccccc1CN[C@@H]1CCCC[C@H]1NCc1ccccc1O [SM6, (1R,2R)-N,N′-di(2-hydroxybenzyl)-1,2-diaminocyclohexane]
effect on the viability of cardiomyocytes ([2]; 10 μM, two day-treatment): no significant effect
toxicity to differentiated cardiomyocytes ([2]; summary in description): not toxic
reduction of the number of colonies compared to DMSO-treated control ([1]; 1 μM): 71.9±21.19%
number of colonies after plating of 2×10^5 cells ([1]; 5 μM): 2.00±2.94 colonies
number of colonies after plating of 2×10^5 cells ([1]; 10 μM): 0.37±0.60 colonies

Oc1c(CNC2CCCC[C@@H]2NCc2cccc(-c3ccccc3)c2O)cccc1-c1ccccc1 (stereo partly drawn) [SM8, (1S,2R)-N,N′-di[(2-hydroxy-3-phenyl)-benzyl]-1,2-diaminocyclohexane]
decrease of cardiomyocyte viability, in average over SM1, SM4 and SM8 ([2]; 10 μM, 72 h of exposure): 79.79±14.72%
